Results on 23 compounds are retold here after US12215093B2, “Bicyclic carboxamides and methods of use thereof” (Tempest Therapeutics, Inc., priority 2018, dated 2025).

Each structure is given as a SMILES string. Read-outs that look alike come from different tables or passages of the source. A value given as a limit tells only on which side of the number the result lay.

Test [1] in a line: Relative activity of resolved enantiomers/diastereomers (assay not stated). The conditions noted are these: compared with the other eluting peak.
Test [2] concerns the target T1, EP2 (Homo sapiens, UniProt P43116). Kind of test: cell-based.
For another test, the target named is T2, EP4 (Homo sapiens, UniProt P35408).
T2 construct: host or cells: stably transfected HEK293 cells co-expressing a promiscuous G protein and a clytin variant
Kind of test: Functional calcium flux assay, EP4. The test is classed as cell-based. The conditions noted are these: stably transfected HEK293 cells; PGE2 10 nM; read-out: EP4 Ca2+-flux assay IC50.

Test [3] concerns the target T1, EP2.

T2 sequence (P35408 whole entry): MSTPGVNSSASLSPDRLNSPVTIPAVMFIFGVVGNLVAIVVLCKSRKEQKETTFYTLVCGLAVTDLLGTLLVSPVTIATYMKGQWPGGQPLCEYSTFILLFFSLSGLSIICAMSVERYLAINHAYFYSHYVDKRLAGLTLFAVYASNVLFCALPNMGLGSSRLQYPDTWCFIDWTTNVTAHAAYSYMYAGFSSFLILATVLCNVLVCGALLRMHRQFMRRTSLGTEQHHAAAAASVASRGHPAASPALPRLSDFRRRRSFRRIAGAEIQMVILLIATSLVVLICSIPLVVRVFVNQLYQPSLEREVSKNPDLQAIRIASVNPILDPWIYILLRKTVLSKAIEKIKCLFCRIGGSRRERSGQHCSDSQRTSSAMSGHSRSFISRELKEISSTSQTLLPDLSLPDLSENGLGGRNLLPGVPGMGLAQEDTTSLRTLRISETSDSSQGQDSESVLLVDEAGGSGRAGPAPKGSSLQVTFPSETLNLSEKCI
T1 sequence (P43116 whole entry): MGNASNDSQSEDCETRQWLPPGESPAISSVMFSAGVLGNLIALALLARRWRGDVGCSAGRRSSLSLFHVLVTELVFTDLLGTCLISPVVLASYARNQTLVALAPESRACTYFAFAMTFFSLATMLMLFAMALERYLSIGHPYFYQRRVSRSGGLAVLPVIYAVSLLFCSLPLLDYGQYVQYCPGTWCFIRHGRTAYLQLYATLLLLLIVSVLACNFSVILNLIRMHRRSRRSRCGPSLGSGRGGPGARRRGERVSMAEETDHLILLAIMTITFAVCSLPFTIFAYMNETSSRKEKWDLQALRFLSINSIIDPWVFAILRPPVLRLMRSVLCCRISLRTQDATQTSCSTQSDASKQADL

For `O=C(NC1CC2(C1)CC(C(=O)O)C2)c1ccc(F)c2ccn(Cc3ccc(OC(F)(F)F)cc3)c12` (stereo not shown) [Example 8, (Sa)-6-(4-Fluoro-1-(4-(trifluoromethoxy)benzyl)-1H-indole-7-carboxamido)spiro[3.3]heptane-2-carboxylic acid], the “more active enantiomer / diastereomer after chiral SFC resolution” value (from here on “more active enantiomer / diastereomer”) in test [1] was “more active enantiomer”. For the same compound, the concentration for half-maximal inhibition (IC50) was 43 nM on EP2 [2] and less than 1 nM at EP4.
For `CC(c1ccc(-c2ccccc2)cc1)n1ncc2cccc(C(=O)NC3CC4(C3)CC(C(=O)O)C4)c21` (single isomer, unassigned) [Example 125, (Sa)-6-(1-((R) or (S)-1-([1,1′-Biphenyl]-4-yl)-ethyl)-1H-indazole-7-carboxamido)spiro[3.3]heptane-2-carboxylic acid], in that order: “more active diastereomer”, less than 25 nM and less than 1 nM.
On to `O=C(NC1CC2(C1)CC(C(=O)O)C2)c1ccc(F)c2ccn(Cc3ccc(-c4ccncc4)cc3)c12` (stereo not shown) [Example 24, (Sa)-6-(4-Fluoro-1-(4-(pyridin-4-yl)benzyl)-1H-indole-7-carboxamido)spiro[3.3]heptane-2-carboxylic acid], for which the “more active enantiomer / diastereomer” value in test [1] is “more active enantiomer”.
Regarding `CC(c1ccc(-c2ccccc2)cc1)n1ncc2cc(Cl)cc(C(=O)NC3CC4(C3)CC(C(=O)O)C4)c21` (single isomer, unassigned) [Example 174, (Sa)-6-(1-((R) or (S))-1-([1,1′-Biphenyl]-4-yl)ethyl)-5-chloro-1H-indazole-7-carboxamido)spiro[3.3]heptane-2-carboxylic acid], the “more active enantiomer / diastereomer” value in test [1] is recorded as “more active diastereomer”. Further, the values for the IC50 against EP2 [3] and at EP4 were less than 25 nM and 6.4 nM, respectively.
As for `[2H]C([2H])([2H])C([2H])(c1ccc(-c2ccccc2)cc1)n1ncc2c(Cl)ccc(C(=O)NC3CC4(C3)CC(C(=O)O)C4)c21` (racemic) [Example 166, (Sa)-6-(1-((racemic)-1-([1,1′-Biphenyl]-4-yl)ethyl-1,2,2,2-d4)-4-chloro-1H-indazole-7-carboxamido)spiro[3.3]heptane-2-carboxylic acid], the results for the 50% inhibitory concentration (IC50) on EP2 [2] and at EP4 were 26 nM and 3.9 nM, respectively.
As for `[2H]C([2H])([2H])C([2H])(c1ccc(-c2ccccc2)cc1)n1ncc2cccc(C(=O)NC3CC4(C3)CC(C(=O)O)C4)c21` (racemic) [Example 168, (Sa)-6-(1-((racemic)-1-([1,1′-Biphenyl]-4-yl)ethyl-1,2,2,2-d4)-1H-indazole-7-carboxamido)spiro[3.3]heptane-2-carboxylic acid], the IC50 amounted to 28 nM against EP2 [2] and 1.2 nM at EP4.
For `O=C(NC1CC2(C1)CC(C(=O)O)C2)c1ccc(F)c2ccn(Cc3ccc(OC(F)(F)F)cc3)c12` (racemic) [Example 1, (racemic)-6-(4-Fluoro-1-(4-(trifluoromethoxy)benzyl)-1H-indole-7-carboxamido)spiro[3.3]heptane-2-carboxylic acid] the same measures were 34 nM and less than 1 nM.
Consider `CCOc1cccc(-c2ccc(Cn3ncc4c(Cl)ccc(C(=O)NC5CC6(C5)CC(C(=O)O)C6)c43)cc2)n1` (stereo not shown) [Example 83, (Sa)-6-(4-Chloro-1-(4-(6-ethoxypyridin-2-yl)benzyl)-1H-indazole-7-carboxamido)spiro[3.3]heptane-2-carboxylic acid], for which the IC50 at EP2 [2] was less than 25 nM; on EP4, less than 1 nM.
For `[2H]C([2H])([2H])Oc1cccc(-c2ccc(Cn3ccc4c(F)ccc(C(=O)NC5CC6(C5)CC(C(=O)O)C6)c43)cc2)c1` (stereo not shown) [Example 52, (Sa)-6-(4-fluoro-1-((3’-methoxy-d3-[1,1′-biphenyl]-4-yl)methy1)-1H-indole-7-carboxamido)spiro[3.3]heptane-2-carboxylic acid] the same measures were less than 25 nM and less than 1 nM.
For `N#Cc1ccc(-c2ccc(Cn3ccc4c(F)ccc(C(=O)NC5CC6(C5)CC(C(=O)O)C6)c43)cc2)cc1` (racemic) [Example 13, (racemic)-6-(1-((4′-cyano-[1,1′-biphenyl]-4-yl)methyl)-4-fluoro-1H-indole-7-carboxamido)spiro[3.3]heptane-2-carboxylic acid], in that order: 39 nM and less than 1 nM.
For the compound `[2H]C1(C(=O)O)CC2(CC(NC(=O)c3ccc(F)c4ccn(Cc5ccc(-c6ccccc6)cc5)c34)C2)C1` (stereo not shown) [Example 105, (Sa)-6-(1-([1,1′-Biphenyl]-4-ylmethyl)-4-fluoro-1H-indole-7-carboxamido)-2-deuterospiro[3.3]heptane-2-carboxylic acid], the “more active enantiomer / diastereomer” value in test [1] was “more active enantiomer”.
For the compound `CC(c1ccc(-c2ccccc2)cc1)n1ncc2c(Cl)ccc(C(=O)NC3CC4(C3)CC(C(=O)O)C4)c21` (single isomer, unassigned) [Example 130, (Sa)-6-(1-((R) or (S)-1-([1,1′-biphenyl]-4-yl)-ethyl)-4-chloro-1H-indazole-7-carboxamido)spiro[3.3]heptane-2-carboxylic acid], the IC50 was less than 25 nM at EP2 [2] and less than 1 nM on EP4.
On to `O=C(NC1CC2(C1)CC(C(=O)O)C2)c1ccc(Cl)c2ccn(Cc3ccc(N4CCOCC4)cc3)c12` (stereo not shown) [Example 71, (Sa)-6-(4-Chloro-1-(4-morpholinobenzyl)-1H-indole-7-carboxamido)spiro[3.3]heptane-2-carboxylic acid], for which the IC50 against EP2 [2] is 94 nM; at EP4, less than 1 nM.
For `N#Cc1cccc(-c2ccc(Cn3ccc4c(F)ccc(C(=O)NC5CC6(C5)CC(C(=O)O)C6)c43)cc2)c1` (racemic) [Example 15, (racemic)-6-(1-((3′-cyano-[1,1′-biphenyl]-4-yl)methyl)-4-fluoro-1H-indole-7-carboxamido)spiro[3.3]heptane-2-carboxylic acid], in that order: less than 25 nM and less than 1 nM.
For `O=C(NC1CC2(C1)CC(C(=O)O)C2)c1ccc(F)c2ccn(Cc3ccc(-c4ccccc4)c(F)c3)c12` (racemic) [Example 10, (racemic)-6-(4-Fluoro-1-((2-fluoro-[1,1′-biphenyl]-4-yl)methyl)-1H-indole-7-carboxamido)spiro[3.3]heptane-2-carboxylic acid] the same measures were less than 25 nM and less than 1 nM.
For `CCOc1cccc(-c2ccc(Cn3ccc4c(F)ccc(C(=O)NC5CC6(C5)CC(C(=O)O)C6)c43)cc2)n1` (stereo not shown) [Example 56, (Sa)-6-(1-(4-(6-Ethoxypyridin-2-yl)benzyl)-4-fluoro-1H-indole-7-carboxamido)spiro[3.3]heptane-2-carboxylic acid] the same measures were 76 nM and less than 1 nM.
Consider `[2H]C([2H])([2H])C([2H])(c1ccc(-c2ccccc2)cc1)n1ncc2c(Cl)ccc(C(=O)NC3CC4(C3)CC(C(=O)O)C4)c21` (single isomer, unassigned) [Example 167, (Sa)-6-(1-((R) or (S)-1-([1,1′-Biphenyl]-4-yl)ethyl-1,2,2,2-d4)-4-chloro-1H-indazole-7-carboxamido)spiro[3.3]heptane-2-carboxylic acid], for which the values for the IC50 against EP2 [2] and on EP4 were 41 nM and 3.5 nM, respectively.
For `COc1cccc(-c2ccc(Cn3ccc4c(OC)ncc(C(=O)NC5CC6(C5)CC(C(=O)O)C6)c43)cc2)n1` (stereo not shown) [Example 92, (Sa)-6-(4-Methoxy-1-(4-(6-methoxypyridin-2-yl)benzyl)-1H-pyrrolo[3,2-c]pyridine-7-carboxamido)spiro[3.3]heptane-2-carboxylic acid] the same measures were less than 25 nM and less than 1 nM.
For `O=C(NC1CC2(C1)CC(C(=O)O)C2)c1ccc(Cl)c2cnn(C3(c4ccc(-c5ccccc5)cc4)COC3)c12` (stereo not shown) [Example 176, (Sa)-6-(1-(3-([1,1′-Biphenyl]-4-yl)oxetan-3-yl)-4-chloro-1H-indazole-7-carboxamido)spiro[3.3]heptane-2-carboxylic acid] the same measures were less than 25 nM and 2.9 nM.
For `COc1ccc2cc(-c3ccc(Cn4ccc5c(F)ccc(C(=O)NC6CC7(CC(CC(=O)O)C7)C6)c54)cc3)ccc2n1` (single isomer, unassigned) [Example 137, (Sa)-2-(6-(4-Fluoro-1-(4-(2-methoxyquinolin-6-yl)benzyl)-1H-indole-7-carboxamido)spiro[3.3]heptan-2-yl)acetic acid], in that order: 64 nM and 3.2 nM.
Regarding `COc1cccc(-c2ccc(Cn3ccc4c(F)ccc(C(=O)NC5CC6(C5)CC(C(=O)O)C6)c43)cc2)c1` (racemic) [Example 14, (racemic)-6-(4-fluoro-1-((3′-methoxy-[1,1′-biphenyl]-4-yl)methyl)-1H-indole-7-carboxamido)spiro[3.3]heptane-2-carboxylic acid], the values for the IC50 against EP2 [2] and on EP4 were less than 25 nM and less than 1 nM, respectively.
As for `O=C(NC1CC2(C1)CC(C(=O)O)C2)c1ccc(F)c2ccn(Cc3ccc(-c4ccccc4)cc3)c12` (stereo not shown) [Example 9, (Sa)-6-(1-([1,1′-Biphenyl]-4-ylmethyl)-4-fluoro-1H-indole-7-carboxamido)spiro[3.3]heptane-2-carboxylic acid], the “more active enantiomer / diastereomer” value in test [1] was “more active enantiomer”.
On to `COc1cc(-c2ccc(Cn3ncc4c(Cl)ccc(C(=O)NC5CC6(C5)CC(C(=O)O)C6)c43)cc2)ccn1` (stereo not shown) [Example 78, (Sa)-6-(4-Chloro-1-(4-(2-methoxypyridin-4-yl)benzyl)-1H-indazole-7-carboxamido)spiro[3.3]heptane-2-carboxylic acid], for which the 50% inhibitory concentration (IC50) came to 99 nM on EP2 [2] and 4.4 nM at EP4.

In general, IC50 refers to the concentration that inhibits the measured activity by half.
